# US5817634A, “Methods of treating diabetes mellitus and clycogen storage disease” (The UAB Research Foundation, priority 1994, dated 1998)
# “Also recorded” adds a separate entry of the source.
# Assays:
# [1] = biological target: T1, glycogenin (Bos taurus, UniProt Q29RN2); experiment: Glycogenin assay: transfer of glucose or xylose from the UDP-sugar to exogenous glycoside acceptors; format: biochemical, beef; settings: for inhibition of transfer of [3H]glucose to DBM by glycogenin: inhibitor 0.1-0.5 mM, acceptor DBM; for activity as glucose acceptor substrate for glycogenin: UDP-[3H]glucose donor, 60 min at 37° C.
# T1 construct: chromatography of a 105,000×g supernatant from a homogenate of beef kidney on DE-53 cellulose; tissue local slaughter house; host or cells: beef kidney
# T1 sequence (Q29RN2 1-333): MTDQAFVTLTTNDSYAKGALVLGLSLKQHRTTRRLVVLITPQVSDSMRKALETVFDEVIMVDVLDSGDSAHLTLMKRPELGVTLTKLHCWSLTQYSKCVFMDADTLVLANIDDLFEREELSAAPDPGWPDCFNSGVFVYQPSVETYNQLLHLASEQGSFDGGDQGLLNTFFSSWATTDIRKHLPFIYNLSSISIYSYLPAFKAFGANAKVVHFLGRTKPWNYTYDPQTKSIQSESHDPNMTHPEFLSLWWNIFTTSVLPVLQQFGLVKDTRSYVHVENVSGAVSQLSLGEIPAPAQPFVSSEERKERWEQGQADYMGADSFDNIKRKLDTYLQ
# Excerpt: Glycogenin is a self-glycosylating glycosyltransferase which can be obtained from muscle and which can also be obtained from rat and beef kidney. The enzyme is capable of transferring glucose and xylose from the respective UDP-sugar substrates to itself and also of transferring these sugars to exogenous acceptors, such as dodecyl-β-D-maltoside, tetradecyl-β-D-maltoside, octyl-β-D-maltoside, octyl-α-D-glucoside and other glycosides, as described herein.
# Fresh beef kidney was purchased from a local slaughter house. Purification of glycogenin from kidney involves the following steps: chromatography of a 105,000×g supernatant from a homogenate of beef kidney on DE-53 cellulose, chromatofocusing and chromatography on a column of UDP-glucuronic acid-agarose, which was eluted with cytidine 5'-diphosphate(CDP). […] The protein concentration of the affinity purified enzyme was determined to be 10 μg/ml with the Quantigold protein reagent (Diversified Biotech, Newton Centre, Mass.).
# An appropriate sample of UDP-[^3 H] glucose or UDP-[^3 H] xylose (supplied in 70% ethanol by the manufacturer) was evaporated to dryness with a gentle stream of filtered air and dissolved in 50 mM Tris Cl, pH 7.4/75 mM BAL/1.5 mM ATP. […] After incubation for 60 min at 37° C. product formation was measured by either of the two procedures described below.
# Product isolation by precipitation with trichloracetic acid. After completed incubation, 1% bovine serum albumin (50 μl) and 10% trichloracetic acid/4% phosphotungstic acid (150 μl) were added, and the mixture was vortexed and kept on ice for at least 15 min. The precipitate was sedimented by centrifugation in a microfuge and washed three times with 5% trichloroacetic acid. The bottom of the tube, containing the pellet, was clipped off with a dog nail clipper and dropped into a 6 ml scintillation vial, the protein was dissolved in 250 μl of 2M NaOH, and, after neutralization with 250 μl of 2M HCl, 4.5 ml of Ecolume was added, and the radioactivity was measured.
# Product isolation by adsorption to SepPak C18 cartridges. The reaction mixture was brought to a, volume of 0.5 ml by addition of water and was heated to 100° C. for 1 min. After cooling to room temperature, the mixture was centrifuged, and a 10 μl aliquot was removed for measurement of total radioactivity. The remaining 490 μl was applied with the use of a 10 ml syringe to a SepPak C18 cartridge, which had been preconditioned by washing with 8 ml of 95% ethanol, 8 ml of 70% ethanol, and 20 ml of water. After sample application, the cartridge was washed with 2×9 ml of water, followed by an additional 2 ml portion of water, and adsorbed radioactive material was then eluted with 3×4 ml of 70% ethanol. Typically, no significant radioactivity was found in the last water wash, and most of the bound radioactive material was found in the first ethanol eluate.
# Gel electrophoresis and autoradiography. SDS-PAGE was carried out with slight modification of Laemmli (Laemmli, U. K., Nature, 227:680-685 (1970)). A Hoefer vertical slab gel electrophoresis unit (Hoefer Scientific Instruments, San Francisco, Calif.) was used for casting and electrophoresing with a 10% (w/v) acrylamide separating gel and a 4.5% (w/v) acrylamide stacking gel. Reaction mixtures, with total volumes of 75 μl, containing 0.15 μCi (0.26 μM) UDP-[^3 H] glucose, 10 ng of affinity purified enzyme (intact or heat denatured), in the absence and presence of increasing concentrations of DBM were incubated at 37° C. for 60 min. The reaction was terminated by addition of 5 μl of water and 20 μl of sample reducing buffer (5× concentrated) to give final concentrations of 40 mM Tris-Cl, pH 6.8, 1.5% (w/v) SDS, 6% (v/v) glycerol, 100 mM DTT and 0.002% (w/v) bromophenol blue and heated to 100° C. for 3 min. The supernatant was applied to the gel and electrophoresed at 7.5 mA for 16 hours. […]
# [2] = biological target: T2, Rabbit muscle glycogen synthase (Oryctolagus cuniculus, UniProt P13834); experiment: Glycogen synthase assay: glucose transfer from UDP-glucose to acceptor; format: biochemical; settings: for rank as glucose acceptor for glycogen synthase: octyl-, dodecyl- and tetradecyl-maltosides compared, with G-6-P
# T2 construct: purchased Sigma Chemical Co; host or cells: rabbit muscle
# T2 sequence (P13834 1-735): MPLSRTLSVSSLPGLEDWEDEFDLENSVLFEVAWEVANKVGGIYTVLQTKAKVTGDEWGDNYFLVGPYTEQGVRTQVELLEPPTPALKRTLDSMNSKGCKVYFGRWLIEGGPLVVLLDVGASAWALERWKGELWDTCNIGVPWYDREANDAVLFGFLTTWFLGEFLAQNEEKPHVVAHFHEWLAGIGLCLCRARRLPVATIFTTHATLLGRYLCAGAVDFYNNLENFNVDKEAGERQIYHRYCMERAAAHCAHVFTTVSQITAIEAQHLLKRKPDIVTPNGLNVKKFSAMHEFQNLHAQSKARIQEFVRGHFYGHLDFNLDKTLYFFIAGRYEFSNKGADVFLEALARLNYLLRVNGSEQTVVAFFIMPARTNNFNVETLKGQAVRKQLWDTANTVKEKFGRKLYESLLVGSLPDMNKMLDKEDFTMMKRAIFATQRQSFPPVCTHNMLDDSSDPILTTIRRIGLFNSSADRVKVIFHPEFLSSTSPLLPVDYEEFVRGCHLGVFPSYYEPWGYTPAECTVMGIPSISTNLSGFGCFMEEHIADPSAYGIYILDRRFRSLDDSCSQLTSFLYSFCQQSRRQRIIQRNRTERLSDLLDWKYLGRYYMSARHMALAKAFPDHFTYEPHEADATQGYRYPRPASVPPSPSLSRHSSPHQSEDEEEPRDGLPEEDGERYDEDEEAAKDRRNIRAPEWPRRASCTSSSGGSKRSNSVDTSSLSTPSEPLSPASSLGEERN
# Protocol: Rabbit muscle glycogen synthase obtained from Sigma Chemical Co., (7.6 μg) was incubated with 0.45 μCi UDP-[^3 H]glucose (specific activity of 10.4 Ci/mmol), 1 mM UDP-glucose (glucose donor), 10 mM glucose-6-phosphate (the natural activator of glycogen synthase) and 1 mg glycogen (glucose acceptor) in 25 mM EDTA/5 mM DTT/100 mM glycine. NaOH buffer, pH 8.6 in a total volume of 100 μl for 30-240 minutes at 37° C. At different time points, glycogen was precipitated from the reaction mixtures with ethanol and the precipitate washed to remove any unincorporated radiolabel. The glycogen precipitate was then solubilized and counted in a liquid scintillation counter to quantitate the amount of [^3 H]glucose incorporated into glycogen.
# Results. When DBM (0.5 mM) replaces glycogen as the glucose acceptor in the incubation mixture, a linear transfer of glucose to DBM with time is seen up to 4 hours, with the glucose transfer amounting to about 20% of the maximal value seen with glycogen (using the SepPak C18 assay).
# When glycogen synthase was incubated for 24 hours with G-6-P, UDP-[^3 H]glucose and 0.5 mM DBM, several products of glucose transfer to DBM could be visualized following separation by thin layer chromatography and autoradiography. These products corresponded to the dodecyl-maltotrioside,-tetraoside, -pentaoside, -hexaoside, -heptaoside and higher oligosaccharide derivatives of DBM. […] Therefore, DBM and other suitable glycosides can serve as glucose acceptors for both glycogen synthase and glycogenin to promote glucose disposal in conditions such as hyperglycemia and diabetes mellitus. Providing an abundance of acceptor substrates in tissues, such as liver, which has a smaller number of extremely large glycogen molecules can alleviate the problem of excessive glycogen deposition in the glycogen storage diseases by promoting glucose disposal into more readily handled smaller glucose polymers built on DBM or other glycosides.
molecule,measurement,setting,value
"Nc1ccn([C@@H]2O[C@H](COP(=O)(O)OP(=O)(O)O)[C@@H](O)[C@H]2O)c(=O)n1 [Cytidine 5'-diphosphate, reference compound]",inhibition of transfer of [3H]glucose to DBM by glycogenin,[1],inhibited the transfer of [^3 H]glucose to DBM by glycogenin in a dose dependent manner
same,inhibition of transfer of [3H]glucose to DBM by glycogenin,[1]; listed as CDP,dose-dependent inhibition
"CCCCCCCCCCCCO[C@@H]1O[C@H](CO)[C@@H](O[C@H]2O[C@H](CO)[C@@H](O)[C@H](O)[C@H]2O)[C@H](O)[C@H]1O [DBM, dodecyl-β-D-maltoside]",glucose transfer relative to maximal value seen with glycogen,"[2]; 0.5 mM acceptor replacing glycogen, up to 4 hours, SepPak C18 assay",about 20%
same,acceptor concentration giving near-maximal glycogen synthase activity,"[2]; 0.1 to 10 mM acceptor, 60 min incubation",less than 0.5 mM
same,length of acceptor-linked oligosaccharide products formed by glycogen synthase,"[2]; 24 hours with G-6-P, UDP-[3H]glucose, 0.5 mM acceptor, TLC and autoradiography",greater than seven glucose residues
same,activity as glucose acceptor substrate for glycogenin,[1],dose-dependent fashion; also recorded: best acceptor for glucose
same,xylose acceptor for glycogenin (product formed),[1]; UDP-[3H]xylose as donor substrate,DBM-xylose was formed
same,glucose acceptor activity of DBM relative to octyl-β-D-maltoside,[1]; comparator octyl-β-D-maltoside,four times better
same,glucose acceptor activity of DBM relative to tetradecyl-β-D-maltoside,[1]; comparator tetradecyl-β-D-maltoside,twice as active
CCCCCCCCO[C@H]1O[C@H](CO)[C@@H](O)[C@H](O)[C@H]1O [Octyl-α-D-glucoside],activity as glucose acceptor substrate for glycogenin,[1],effective glucose acceptor
CCCCCCCCCCO[C@@H]1O[C@H](CO)[C@@H](O[C@H]2O[C@H](CO)[C@@H](O)[C@H](O)[C@H]2O)[C@H](O)[C@H]1O [decyl-β-D-maltoside],activity as glucose acceptor substrate for glycogenin,[1],capable of serving as acceptor substrates
CCCCCCCCO[C@@H]1O[C@H](CO)[C@@H](O)[C@H](O)[C@H]1O [octyl-β-D-glucoside],activity as glucose acceptor substrate for glycogenin,[1],activities are low
CCCCCCCCO[C@@H]1O[C@H](CO)[C@@H](O[C@H]2O[C@H](CO)[C@@H](O)[C@H](O)[C@H]2O)[C@H](O)[C@H]1O [octyl-β-D-maltoside],rank as glucose acceptor for glycogen synthase,[2],best acceptor
same,activity as glucose acceptor substrate for glycogenin,[1],capable of serving as acceptor substrates
CCCCCCCCS[C@@H]1O[C@H](CO)[C@@H](O)[C@H](O)[C@H]1O [octyl-β-D-thioglucoside],activity as glucose acceptor substrate for glycogenin,[1],more active as a glucose acceptor than octyl-β-D-glucoside
CCCCCCCCCCCCCCO[C@@H]1O[C@H](CO)[C@@H](O[C@H]2O[C@H](CO)[C@@H](O)[C@H](O)[C@H]2O)[C@H](O)[C@H]1O [tetradecyl-β-D-maltoside],rank as glucose acceptor for glycogen synthase,[2],followed by DBM and tetradecylmaltoside
same,activity as glucose acceptor substrate for glycogenin,[1],capable of serving as acceptor substrates
dodecyl-β-D-sucrose,activity as glucose acceptor substrate for glycogenin,[1],much lower activity
